Data taken from patent publication US20230272083A1, “COMBINATION OF AN ANTI-PD-L1 ANTIBODY AND A DNA-PK INHIBITOR FOR THE TREATMENT OF CANCER” (Merck Patent GmbH, priority 2017, published 2023).

Experiments:
[1] = test system: human PBMC-derived immune cells; test: Effect of culture media from M3814-induced senescent cells on immune cells (live imaging); format: cell-based
Description: (§1) These substantial changes in gene expression were built gradually and correlated with the development of senescence phenotype. Several proteins from the induced subset were measured in the cell media (Meso Scale Discovery) and confirmed that they are secreted by senescent cells in the absence of M3814.

[2] = test system: murine colon tumor model MC38; test: M3814 and avelumab in syngeneic MC38 tumor model (Example 1); format: in vivo, C57BL6/N mice; settings: M3814 150 mg/kg orally once daily, avelumab 400 μg/mouse intravenously on days 3, 6 and 9; for median time the tumors needed to double in size as compared to their initial volume at day 0: Kaplan-Meyer evaluation
Excerpt: This model allows the use of immunocompetent mice, a necessary requirement to study the T-cell mediated antitumor effect of Avelumab. The experimental set up included the induction of MC38 tumors in C57BL6/N mice by injection of 1×10^6 tumor cells into the right flank of the animals. Tumor growth was followed over time by measuring length and width using a caliper. When tumors were established to an average size of 50-100 mm^3, mice were subdivided in 4 treatment groups with 10 animals each, and treatment started. This day was defined as day 0. Group 1 received vehicle treatment. Group 2 received M3814 orally once daily at 150 mg/kg in a volume of 10 ml/kg. Group 3 received avelumab intravenously once daily at 400 μg/mouse in a volume of 5 ml/kg on days 3, 6 and 9. Group 4 received M3814 orally once daily at 150 mg/kg in a volume of 10 ml/kg and avelumab intravenously once daily at 400 μg/mouse in a volume of 5 ml/kg on days 3, 6 and 9.

[3] = target: DNA-PK (Homo sapiens, UniProt P78527); test: Crystallographic and enzyme kinetics studies; format: biochemical
Excerpt: DNA-PK, together with five additional protein factors (Ku70, Ku80, XRCC4, Ligase IV and Artemis) plays a critical role in the repair of DSB via NHEJ. Kinase activity of DNA-PK is essential for proper and timely DNA repair and the long-term survival of cancer cells.

[4] = test system: A549 and A375 cells; test: Nanostring PanCancer Immune panel mRNA analysis of IR/M3814 induced senescent cells; format: cell-based
Description: as §1

[5] = test system: p53 wild-type cancer cells (A549, A375, H460); test: Cell cycle arrest and senescence after ionizing radiation plus M3814; format: cell-based
[6] = 10 mg/kg dose; cited from earlier work

Compound | immunomodulatory effect of culture media from M3814-induced senescent cells [1] | median time the tumors needed to double in size as compared to their initial volume at day 0 [2] [days] | T/C values calculated at day 13 [2] [%] | inhibition of DNA-PK [3] | upregulation of eighteen immune response genes compared to controls [4] | reversibility of senescence phenotype following compound removal ([5]; A549 cells, live cell imaging and BrdU labeling) | time to typical senescence phenotype (large/flat morphology, β-Gal staining) ([5]; IR 2-5Gy plus sustained M3814) | ATM dependent signaling, including CHK2 and p53-dependent cell cycle arrest ([5]; in the presence of DDSBs) | cell cycle arrest in isogenic p53-null cells ([5]; isogenic p53-null A549 cells, IR plus M3814) | cell cycle effect ([5]; proliferating p53 wild-type A549, A375, H460, single dose of ionizing radiation (2-5Gy) and sustained exposure to M3814) | receptor occupancy [6] | tolerability [6]
COc1ccc([C@@H](O)c2cc(-c3ncnc4cc(N5CCOCC5)ccc34)c(F)cc2Cl)nn1 [Compound M3814, (S)-[2-chloro-4-fluoro-5-(7-morpholin-4-yl-quinazolin-4-yl)-phenyl]-(6-methoxypyridazin-3-yl)-methanol] | increased immunomodulatory effect | 10 | 47 | potent and selective ATP-competitive inhibitor | 3-150 fold | not reversible | 4-7 days | enhanced activation of the ATM dependent signaling | lost the ability to fully arrest their cell cycle | complete cell cycle block | – | –
avelumab: fully human monoclonal antibody of the immunoglobulin (Ig) G1 isotype; selectively binds to PD-L1 | – | 13 | 60 | – | – | – | – | – | – | – | excellent receptor occupancy | well tolerated
